Measured values reported in paper PMC5549488, “Synthesis, Characterization, Cytotoxic Activity, and Interactions with CT-DNA and BSA of Cationic Ruthenium(II) Complexes Containing Dppm and Quinoline Carboxylates” (Bioinorganic Chemistry and Applications, 2017).

Molecular target: T1, bovine serum albumin (BSA) (Bos taurus, UniProt P02769)
T1 construct: gene ALB
Assay: tryptophan fluorescence quenching (Stern-Volmer, double-log plot), […] K; Kb given
Type: binding

T1 sequence (P02769 25-607): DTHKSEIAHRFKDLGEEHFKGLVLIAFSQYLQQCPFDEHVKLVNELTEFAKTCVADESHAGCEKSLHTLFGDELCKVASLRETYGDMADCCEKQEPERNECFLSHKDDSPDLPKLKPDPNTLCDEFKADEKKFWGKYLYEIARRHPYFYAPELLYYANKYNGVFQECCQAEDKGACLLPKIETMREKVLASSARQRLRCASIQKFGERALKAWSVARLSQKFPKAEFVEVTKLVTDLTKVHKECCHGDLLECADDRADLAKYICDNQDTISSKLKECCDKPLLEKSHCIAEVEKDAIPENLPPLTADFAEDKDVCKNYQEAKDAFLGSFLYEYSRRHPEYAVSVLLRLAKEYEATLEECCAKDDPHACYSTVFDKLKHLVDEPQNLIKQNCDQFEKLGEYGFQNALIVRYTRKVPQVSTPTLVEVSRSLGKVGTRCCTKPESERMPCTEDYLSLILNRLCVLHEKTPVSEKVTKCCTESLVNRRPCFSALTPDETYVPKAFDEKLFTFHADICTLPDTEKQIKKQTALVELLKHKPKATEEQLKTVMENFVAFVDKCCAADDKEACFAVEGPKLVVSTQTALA

Substance: cis-[Ru(kynu)(dppm)2]PF6 [compound 2]
- K b / (×10^5): 3.25 (×10^5) (Kb)

Substance: cis-[Ru(quin)(dppm)2]PF6 [compound 1]
- K b / (×10^5): 4.77 (×10^5) (Kb)
